Patent US20250268880A1, “3-(Hydroxy)-Pyridin-4(1H)-One Compounds and Methods of Making and Using the Same” (Georgia Tech Research Corporation, priority 2018, published 2025)
Like-named read-outs stand apart in the source and are kept apart here. Each block holds one molecule with its values, some of them ahead of it.

Assays:
[1] = tested on: HP1-mediated heterochromatin gene repression at the CiA:Oct4 locus; experiment: HP1-recruitment assay (CiA:Oct4), % GFP (+) cells by flow cytometry; type: cell-based, mouse; settings: 48 h, CIP-rapamycin HP1 recruitment
Excerpt: To elucidate the effect of DFP-based KDM inhibitors have on chromatin dynamics, we profiled them in an intracellular assay which measures heterochromatin formation speed. The chromatin assay (CiA) leverages chemical induced proximity (CTP) to recruit heterochromatin protein 1 (HP1) to a modified Oct4 locus. This reporter system inserts tandem arrays of Gal4 and zinc finger DNA binding domains in the promoter of one allele of Oct4, where the gene is replaced by a nuclear eGFP reporter. Protein fusions of Gal4-FKBP and FRRB—HP1 allow for direct chemical recruitment of HP1 to the CiA:Oct4 reporter locus upon addition of the chemical inducer of proximity (CIP)-rapamycin. After CIP-rapamycin addition, HIP1 is recruited to the reporter locus and brings histone methyltransferase enzymes to the chromatin reporter resulting in the repressive H3K9me3 mark being deposited. H3K9me3 deposition leads to heterochromatin formation and gene silencing (FIG. 7A). Others have shown that H3K4me3 marked nucleosomes impede H3K9 methyltransferases. Thus, we postulate that the active H3K4me3 mark mast be removed by KDM enzymes as part of the transformation from euchromatin to heterochromatin. Inhibition of KDMs, specifically those targeting H3K4me3, would result in a decrease in H3K9me3 accumulation, which would be measured in our assay as an increase in % GFP (+) cells.
To determine the effect of DFP-based KDM inhibitors on HP1-mediated gene repression, we treated CiA:Oct4 embryonic stem (ES) cells with doses of representative compounds ranging from […] for 48 h with and without CIP-rapamycin recruiting HP1 (FIG. 7B). […] Dose response curves of DFP derivatives abler 48 h with C) and without D) HP1 recruitment at 10000, 5000, 2500, 1000, 500, 250, and 0 nM concentrations. Flow cytometry was used to determine the % GFP (+) cells following treatment. n=6
The CiA:Oct4 recruitment system in mouse embryonic stem cells contains Gal4 and Zinc finger DNA binding arrays and a downstream nuclear eGFP gene in place of a single Oct4 allele as previously described. The CiA:Oct4 N118/N163 cell line containing viral integrations of N118 and N163 plasmids (N118-nLV EF-1α-Gal-FKBPx1-HA-PGK-Blast, N163-nLV EF-1α-HP1α (CS)-Frbx2(Frb+FrbWobb)-V5-PGK-Puro) was used for inhibition of HP1-mediated heterochromatin studies. All plasmids are freely available on addgene.
Day 0, CiA:Oct4 N118/163 cells were grown in ES media and seeded at a density of 10,000 cells per well (100.000 cells/ml) into gelatin coated 96 well plates. Day 1, culture media was aspirated and replaced with 100 μl ES media containing +/−6 nM rapamycin. 10 μM, 5 μM, 2.5 μM, 1 μM, 500 nM, and 250 nM concentrations of compound or DMSO were added using a TTP Labtech Mosquito HTS liquid handler. Days 2-4. fresh ES media+/−rapamycin and compound were added as in Day 1.
Day 3 and 5, cells were washed with PBS and trypsinized using 0.25% trypsin-EDTA. Trypsin was quenched with serum. Cells were resuspended by pipetting in preparation for flow cytometry analysis.
Flow cytometry data was acquired using the Intellicyt iQue Screener and analyzed with FlowJo software. Cell populations were gated based on forward and side scatter height. Single cell populations were gated using forward scatter area by forward scatter height. Autofluorescent cells were excluded and the remaining cells were gated into GFP (−) and GFP (+) populations based on DMSO control samples.

[2] = target: T1, KDM6A (UTX) (Homo sapiens, UniProt O15550); experiment: biochemical; settings: for inhibition at 1 µM: read-out: KDM6A (UTX) Inhibition (%) 1 (μM); for inhibition at 10 µM: read-out: KDM6A (UTX) Inhibition (%) 10 (μM)
[3] = tested on: MDA-MB-231 (TNBC BCa); experiment: Cell viability assay (MTS), MDA-MB-231; type: cell-based; settings: NI = no inhibition, read-out: Antiproliferative Activity IC50 (μM) MDA-MB-231
[4] = target: T1, KDM6A (UTX); settings: for IC50 against KDM6A (in words): cell-free; for KDM6A (UTX) Inhibition (%) 1 (μM): compound at 1 μM; for KDM6A (UTX) Inhibition (%) 10 (μM): compound at 10 μM

T1 sequence (O15550 whole entry): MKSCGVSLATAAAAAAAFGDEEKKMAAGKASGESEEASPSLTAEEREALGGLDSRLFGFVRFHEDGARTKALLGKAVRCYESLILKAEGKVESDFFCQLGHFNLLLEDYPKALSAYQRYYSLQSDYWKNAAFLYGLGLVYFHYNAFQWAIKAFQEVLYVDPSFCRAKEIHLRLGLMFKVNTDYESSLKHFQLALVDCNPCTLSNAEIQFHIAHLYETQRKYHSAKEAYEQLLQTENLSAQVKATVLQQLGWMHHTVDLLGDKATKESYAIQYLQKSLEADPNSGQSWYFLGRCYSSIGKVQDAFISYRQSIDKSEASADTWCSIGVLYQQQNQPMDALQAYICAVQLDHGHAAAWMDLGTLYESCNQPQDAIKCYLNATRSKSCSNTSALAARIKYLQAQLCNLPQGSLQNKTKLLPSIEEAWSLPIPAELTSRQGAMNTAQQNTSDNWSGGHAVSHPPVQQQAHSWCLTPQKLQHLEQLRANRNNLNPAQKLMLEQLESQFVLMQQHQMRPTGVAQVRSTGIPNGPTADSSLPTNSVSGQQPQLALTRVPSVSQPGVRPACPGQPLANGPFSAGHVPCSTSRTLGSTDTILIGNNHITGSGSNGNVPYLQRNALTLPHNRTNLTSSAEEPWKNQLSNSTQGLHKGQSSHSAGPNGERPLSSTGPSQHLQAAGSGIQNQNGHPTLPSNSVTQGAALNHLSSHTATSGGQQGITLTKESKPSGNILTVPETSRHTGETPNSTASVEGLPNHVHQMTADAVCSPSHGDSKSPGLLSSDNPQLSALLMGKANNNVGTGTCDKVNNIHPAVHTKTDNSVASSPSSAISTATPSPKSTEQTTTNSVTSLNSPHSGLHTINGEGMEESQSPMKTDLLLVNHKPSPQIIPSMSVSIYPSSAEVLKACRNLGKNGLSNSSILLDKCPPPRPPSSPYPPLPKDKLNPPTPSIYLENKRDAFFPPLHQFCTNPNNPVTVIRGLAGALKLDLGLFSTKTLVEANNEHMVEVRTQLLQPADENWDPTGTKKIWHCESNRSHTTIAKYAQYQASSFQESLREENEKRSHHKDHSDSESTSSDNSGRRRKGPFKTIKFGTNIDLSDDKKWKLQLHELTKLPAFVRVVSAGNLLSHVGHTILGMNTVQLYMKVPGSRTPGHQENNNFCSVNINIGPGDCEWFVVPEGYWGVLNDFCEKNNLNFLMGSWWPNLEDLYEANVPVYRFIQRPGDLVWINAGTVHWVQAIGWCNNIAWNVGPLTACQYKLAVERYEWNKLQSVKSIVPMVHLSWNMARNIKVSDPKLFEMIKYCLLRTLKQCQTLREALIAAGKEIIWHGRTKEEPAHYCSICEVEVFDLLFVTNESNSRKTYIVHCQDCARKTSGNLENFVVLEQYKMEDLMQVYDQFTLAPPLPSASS

inhibition at 1 µM [2]: 12% | inhibition at 10 µM [2]: 96%
SMILES: Cc1c(O)c(=O)ccn1CCn1cc(-c2ccccc2)nn1 [Compound 1a]
inhibition of heterochromatin formation (in words) [1]: weak inhibitors

inhibition at 1 µM [2]: 13% | inhibition at 10 µM [2]: 100%
SMILES: Cc1ccc(-c2cn(CCCCn3ccc(=O)c(O)c3C)nn2)cc1 [Compound 2e, 3-Hydroxy-2-methyl-1-(4-(4-(p-tolyl)-1H-1,2,3-triazol-1-yl)butyl)pyridin-4(1H)-one]

IC50 ([3]; 72 h): 9.6 µM
SMILES: COc1ccccc1-c1cn(CCCCn2ccc(=O)c(O)c2C)nn1 [Compound 2g, 3-Hydroxy-1-(4-(4-(2-methoxyphenyl)-1H-1,2,3-triazol-1-y)butyl)-2-methylpyridin-4(1H)-one]

inhibition at 1 µM [2]: 3% | inhibition at 10 µM [2]: 99%
SMILES: COc1ccccc1-c1cn(CCCCCn2ccc(=O)c(O)c2C)nn1 [Compound 2h, 3-Hydroxy-1-(5-(4-(2-methoxyphenyl)-1H-1,2,3-triazol-1-yl)pentyl)-2-methylpyridin-4(1H)-one]

IC50 ([3]; Homo sapiens, MDA-MB-231, 72 h): 19.6 µM | IC50 against KDM6A (in words) [4]: low micromolar | inhibition at 1 µM [2]: 8% | inhibition at 10 µM [2]: 100%
SMILES: COc1cccc(-c2cn(CCCCCn3ccc(=O)c(O)c3C)nn2)c1 [Compound 2j, 3-Hydroxy-1-(5-(4-(3-methoxyphenyl)-1H-1,2,3-triazol-1-yl)pentyl)-2-methylpyridin-4(1H)-one]
increase in GFP expression [1]: 20% | inhibition of heterochromatin formation (in words) [1]: significantly inhibited

inhibition at 1 µM [2]: 4% | inhibition at 10 µM [2]: 100%
SMILES: COc1ccc(-c2cn(CCCCCn3ccc(=O)c(O)c3C)nn2)cc1 [Compound 2l, 3-Hydroxy-1-(5-(4-(4-methoxyphenyl)-1H-1,2,3-triazol-1-yl)pentyl)-2-methylpyridin-4(1H)-one]

IC50 ([3]; 72 h): 18.3 µM | KDM6A (UTX) Inhibition (%) 1 (μM) [4]: 16% | KDM6A (UTX) Inhibition (%) 10 (μM) [4]: 100%
SMILES: Cc1c(O)c(=O)ccn1CCCCCn1cc(-c2ccccc2F)nn1 [Compound 2m]

inhibition at 1 µM [2]: 5% | inhibition at 10 µM [2]: 100%
SMILES: Cc1c(O)c(=O)ccn1CCCCCn1cc(-c2cccc(F)c2)nn1 [Compound 2n, 1-(5-(4-(3-Fluorophenyl)-1H-1,2,3-triazol-1-yl)pentyl)-3-hydroxy-2-methylpyridin-4(1H)-one]

inhibition at 1 µM [2]: 10% | inhibition at 10 µM [2]: 100%
SMILES: Cc1c(O)c(=O)ccn1CCCCCn1cc(-c2ccc(F)cc2)nn1 [Compound 2o, 1-(5-(4-(4-Fluorophenyl)-1H-1,2,3-triazol-1-yl)pentyl)-3-hydroxy-2-methylpyridin-4(1H)-one]

inhibition at 1 µM [2]: 15% | inhibition at 10 µM [2]: 99%
SMILES: Cc1c(O)c(=O)ccn1CCCCCn1cc(-c2ccccc2C(F)(F)F)nn1 [Compound 2p, 3-Hydroxy-2-methyl-1-(5-(4-(2-(trifluoromethyl)phenyl)-1H-1,2,3-triazol-1-yl)pentyl)pyridin-4(1H)-one]

IC50 ([3]; 72 h): 12.5 µM
SMILES: Cc1c(O)c(=O)ccn1CCCCCn1cc(-c2ccc(N(C)C)cc2)nn1 [Compound 2r, 1-(5-(4-(4-(Dimethylamino)phenyl)-1H-1,2,3-triazol-1-yl)pentyl)-3-hydroxy-2-methylpyridin-4(11)-one]

inhibition at 1 µM [2]: 15% | inhibition at 10 µM [2]: 99%
SMILES: Cc1c(O)c(=O)ccn1CCCCCn1cc(-c2ccccn2)nn1 [Compound 2s, 3-Hydroxy-2-methyl-1-(5-(4-(pyridin-2-yl)-1H-1,2,3-triazol-1-yl)pentyl)pyridin-4(1H)-one]

inhibition at 1 µM [2]: 8% | inhibition at 10 µM [2]: 99%
SMILES: Cc1c(O)c(=O)ccn1CCCCCn1cc(-c2ccc(-c3ccncc3)cc2)nn1 [Compound 2t, 3-Hydroxy-2-methyl-1-(5-(4-(4-(pyridin-4-yl)phenyl)-1H-1,2,3-triazol-1-yl)pentyl)pyridin-4(1H)-one]
concentration at which maximum inhibition of heterochromatin formation / gene repression is reached [1]: 10 µM | inhibition of heterochromatin formation (in words) [1]: significantly inhibited

SMILES: Cc1c(O)c(=O)ccn1CCCCCCn1cc(-c2ccc(-c3ccccc3)cc2)nn1 [Compound 2v, 1-(6-(4-([1,1-Biphenyl]-4-yl)-1H-1,2,3-triazol-1-yl)hexyl)-3-hydroxy-2-methylpyridin-4(1H)-one]
concentration at which maximum inhibition of heterochromatin formation / gene repression is reached [1]: 1 µM | inhibition of heterochromatin formation (in words) [1]: significantly inhibited

SMILES: COc1ccc2cc(-c3cn(CCCCCCn4ccc(=O)c(O)c4C)nn3)ccc2c1 [Compound 2w, 3-Hydroxy-1-(6-(4-(6-methoxynaphthalen-2-yl)-1H-1,2,3-triazol-1-yl)hexyl)-2-methylpyridin-4(1H)-one]
concentration at which maximum inhibition of heterochromatin formation / gene repression is reached [1]: 1 µM | inhibition of heterochromatin formation (in words) [1]: significantly inhibited

KDM6A (UTX) Inhibition (%) 1 (μM) [4]: 4% | KDM6A (UTX) Inhibition (%) 10 (μM) [4]: 100%
SMILES: Cc1c(O)c(=O)ccn1CCCCn1ccc(=O)c(O)c1C [Compound 3a]

KDM6A (UTX) Inhibition (%) 1 (μM) [4]: 1% | KDM6A (UTX) Inhibition (%) 10 (μM) [4]: 99%
SMILES: Cc1c(O)c(=O)ccn1CCCCCn1ccc(=O)c(O)c1C [Compound 3b]

KDM6A (UTX) Inhibition (%) 1 (μM) [4]: 2% | KDM6A (UTX) Inhibition (%) 10 (μM) [4]: 100%
SMILES: Cc1c(O)c(=O)ccn1CCCCCCn1ccc(=O)c(O)c1C [Compound 3c]

KDM6A (UTX) Inhibition (%) 1 (μM) [4]: 3% | KDM6A (UTX) Inhibition (%) 10 (μM) [4]: 100%
SMILES: Cc1c(O)c(=O)ccn1CCCCCCCn1ccc(=O)c(O)c1C [Compound 3d]

inhibition at 1 µM [2]: 5% | inhibition at 10 µM [2]: 100%
SMILES: Cc1c(O)c(=O)ccn1Cc1ccc(Cn2ccc(=O)c(O)c2C)cc1 [Compound 3f, 1,1′-(1,4-Phenylenebis(methylene))bis(3-hydroxy-2-methylpyridin-4(1H)-one)]

IC50 against KDM6A (in words) [4]: low micromolar | inhibition at 1 µM [2]: 9% | inhibition at 10 µM [2]: 100%
SMILES: Cc1c(O)c(=O)ccn1C1CCC(CC2CCC(n3ccc(=O)c(O)c3C)CC2)CC1 (stereo not drawn) [Compound 3g, 1,1′-(Methylenebis(cyclohexane-4,1-diyl))bis(3-hydroxy-2-methylpyridin-4(1H)-one)]
concentration at which maximum inhibition of heterochromatin formation / gene repression is reached [1]: 2.5 µM | inhibition of heterochromatin formation (in words) [1]: significantly inhibited

IC50 ([3]; Homo sapiens, MDA-MB-231, 72 h): 1.6 µM | inhibition at 1 µM [2]: 9% | inhibition at 10 µM [2]: 100%
SMILES: CC/C(=C(\c1ccccc1)c1ccc(OCCN(C)Cc2ccc(-c3cn(CCn4ccc(=O)c(O)c4C)nn3)cc2)cc1)c1ccccc1 [Compound 36a]
